This is an account of results in US5808139A (Ligand Pharmaceuticals Incorporated, priority 1994, dated 1998).

Test [1] concerns progesterone receptor (T47D cells). The test is described as follows: Antagonist assay in T47D (human breast cancer) cells (Tables 1 and 2). The format is cell-based. The following applies: for Efficacy (% maximal response relative to RU-486), T47D cells: antagonist activity; for IC50: concentration required to reduce the maximal response by 50%, read-out: Potency (IC50), T47D cells. The text has this: The functional activities of the cyclocymopol analogues in the human breast cell line, T47D, were also investigated. T47D cells have proven to be a particularly useful model to investigate the molecular actions of sex steroids because they contain endogenous functional receptors for, and respond to, progestins, and their respective antagonists. […] In T47D cells, progestins induce de novo synthesis of a plasma-associated alkaline phosphatase, which has been reported to be similar, if not identical, to the alkaline phosphatase present in the normal breast and human milk. These tests were conducted according to the following illustrative example.
The assay was also run using T47D (human breast cancer) cells.

Test [2] deals with human progesterone receptor altered at the Tau-1 location. The test can be described thus: Co-transfection assay in CV-1 cells, progesterone receptor altered at Tau-1, antagonist activity. The format is cell-based. Conditions: for Efficacy (% maximal response relative to RU-486), CV-1 cells: antagonist activity; for IC50: concentration required to reduce the maximal response by 50%, read-out: Potency (IC50), CV-1 cells. The text has this: This assay is described in further detail in U.S. Pat. Nos. 4,981,784 and 5,071,773, which are incorporated herein by reference. The co-transfection assay provides a method for identifying functional ligands (either agonists which mimic, or antagonists which inhibit, the effect of hormones) for ligand-responsive receptor proteins.
The co-transfection assay provides a mechanism to evaluate ability of a compound to function as an agonist or antagonist of the activity modulated by an intracellular receptor. The co-transfection assay mimics an in vivo system in the laboratory. In the co-transfection assay, a cloned gene for an intracellular receptor is introduced by transfection (a procedure to induce cells to take up foreign genes) into a background cell substantially devoid of endogenous intracellular receptors. This introduced gene directs the recipient cells to make the intracellular receptor protein. A second gene is also introduced (co-transfected) into the same cells in conjunction with the intracellular receptor gene. This second gene functions as a reporter for the transcription-modulating activity of the target intracellular receptor. The reporter acts as a surrogate for the products normally expressed by a gene under control of the target receptor and its natural hormone.
A preferred reporter gene is one which expresses the firefly enzyme luciferase. The co-transfection assay can detect small molecule agonists or antagonists of target intracellular receptors. Exposing the cells to an agonist ligand increases reporter activity in the transfected cells that can be conveniently measured, reflecting ligand-dependent, intracellular receptor-mediated increases in reporter transcription. To detect antagonists, the co-transfection assay is carried out in the presence of a constant concentration of an agonist known to induce a defined reporter signal. Increasing concentrations of a test antagonist will decrease the reporter signal. The co-transfection assay is therefore useful to detect both agonists and antagonists of specific intracellular receptors. It determines not only whether a compound interacts with a particular intracellular receptor, but also whether this interaction mimics (agonizes) or blocks (antagonizes) the effects of the natural regulatory molecules on target gene expression.
Co-transfected cells are exposed to a medium to which is added the potential ligand that is being evaluated. If the candidate ligand diffuses into the cell and binds to the receptor and the resulting complex functions as an agonist, it binds to the co-transfected reporter gene and initiates transcription. When that gene is one that expresses, for example, luciferase, luciferase is produced which catalyzes a light-emitting reaction with its substrate luciferin. Thus, after cell lysis and the introduction of luciferin, the amount of light produced relative to the concentration of candidate ligand used in the assay provides a measure of the potency and efficacy of the compound tested. Antagonist activity is evaluated by adding the candidate ligand and a known agonist to the co-transfected cells.
The receptor cDNA was introduced in a mammalian expression vector under the control of the Rous Sarcoma virus LTR. […] A reporter vector was also transfected, containing a firefly luciferase gene under the control of the hormone-responsive promoter. […] The level of luciferase activity was then measured in cell extracts. Light emission is directly proportional to the effectiveness of the hormone-receptor complex in activating gene expression.
A total of three replicates per concentration point were tested for each compound, and the EC50 was calculated for each positive response. Both agonist and antagonist activity for each test compound was determined in parallel. […]

For test [3], the target named is T1, human progesterone receptor (Homo sapiens, UniProt P06401).
T1 sequence (P06401 1-933): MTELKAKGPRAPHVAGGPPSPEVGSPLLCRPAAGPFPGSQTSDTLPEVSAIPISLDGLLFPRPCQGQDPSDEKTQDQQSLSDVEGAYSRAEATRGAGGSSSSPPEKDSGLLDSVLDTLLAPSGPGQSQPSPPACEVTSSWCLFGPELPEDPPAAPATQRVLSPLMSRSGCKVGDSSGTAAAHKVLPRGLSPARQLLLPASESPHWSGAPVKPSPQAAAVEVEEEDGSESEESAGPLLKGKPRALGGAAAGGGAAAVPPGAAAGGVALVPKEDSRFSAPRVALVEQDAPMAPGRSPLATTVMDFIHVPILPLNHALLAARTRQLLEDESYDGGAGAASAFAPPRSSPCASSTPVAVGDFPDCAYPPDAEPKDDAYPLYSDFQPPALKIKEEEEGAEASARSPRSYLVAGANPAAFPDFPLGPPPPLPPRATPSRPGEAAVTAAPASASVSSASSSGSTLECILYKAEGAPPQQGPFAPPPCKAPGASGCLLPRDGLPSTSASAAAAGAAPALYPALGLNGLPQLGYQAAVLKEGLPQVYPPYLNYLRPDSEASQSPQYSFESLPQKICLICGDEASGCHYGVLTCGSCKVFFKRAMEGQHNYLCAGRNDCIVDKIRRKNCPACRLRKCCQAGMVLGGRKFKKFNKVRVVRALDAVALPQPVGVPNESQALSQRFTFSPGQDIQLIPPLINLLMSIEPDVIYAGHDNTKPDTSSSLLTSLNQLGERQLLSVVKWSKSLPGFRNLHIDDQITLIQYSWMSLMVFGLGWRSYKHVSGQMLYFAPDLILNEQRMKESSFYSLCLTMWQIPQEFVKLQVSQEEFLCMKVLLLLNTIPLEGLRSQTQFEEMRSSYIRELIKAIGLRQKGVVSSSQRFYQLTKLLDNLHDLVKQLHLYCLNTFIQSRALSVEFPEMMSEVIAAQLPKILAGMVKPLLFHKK
The test can be described thus: Progesterone receptor binding (displacement of 3H-progesterone, whole cell extract of transfected CV-1 cells). On the set-up: expressed in transfected cells; host or cells: CV-1 cells (calcium phosphate transfection), whole cell extract. Here is the method: These tests were conducted according to the following illustrative example.
CO2 for 40 hours prior to harvest.
After incubation, cells were harvested and washed in phosphate buffered saline. Whole cell receptor extract was prepared by homogenizing the harvested cells in Tris-HCl buffer, pH=7.4, containing 30% glycerol, 1 mM EDTA, 12 mM monothioglycerol, 1 mM PMSF, and 0.5M potassium chloride. The homogenate was incubated at 4° C. for 60 min with resuspension every 10 min. The suspension was centrifuged (105,000×g, 60 min) and the supernatant was collected and flash frozen in liquid nitrogen and stored frozen at -70° C.
To a […] final volume incubation mixture, […] of 7.5% (w/v) dextran-coated charcoal suspension in gelatin phosphate buffer was added. The mixture was vortexed and incubated at 4° C. for 10 min and then centrifuged at 3000 rpm for 10 min. The amount of bound tritiated hormone was determined by liquid scintillation spectrophotometry of an aliquot of the supernatant. […]

On to `C=C1C=C(C)CC(C)(C)C1C/C=C/c1cc(OC)c(Br)cc1O` (stereo not drawn) [GG, 1-Methylidene-6-[trans-(2'-Hydroxy-4'-bromo-5'-methoxyphenyl)-1-propenyl]-3,5,5-trimethylcyclohex-2-ene], for which, in test [1], the “Efficacy (% maximal response relative to RU-486), T47D cells” value was determined as 65% and the IC50 amounted to 1600 nM. Moreover, in test [2], the “Efficacy (% maximal response relative to RU-486), CV-1 cells” value stood at 61% and the IC50 was 3300 nM.
With `C=C1C=CCC(C)(C)C1Cc1cc(OC)c(Br)cc1O` (stereo not shown) [K, 1-Methylidene-6-(2'-hydroxy-4'-bromo-5'-methoxyphenyl)methyl-5,5-dimethylcyclohex-2-ene], the “Efficacy (% maximal response relative to RU-486), T47D cells” value in test [1] is on record as 70%. For the same compound, the “Efficacy (% maximal response relative to RU-486), CV-1 cells” value in test [2] came out at 70%.
With `COc1cc(CC2C(C)(C)CC(C)=CC23CC3)c(OC(C)=O)cc1Br` (stereo not shown) [DD, 8-(2'-Acetoxy-4'-bromo-5'-methoxyphenyl)methyl-5,7,7-trimethylspiro[2.5]oct-4-ene], in test [1], the “Efficacy (% maximal response relative to RU-486), T47D cells” value worked out at 68% and the IC50 was found to be 440 nM. In test [2], the “Efficacy (% maximal response relative to RU-486), CV-1 cells” value was determined as 26% and the IC50 is 160 nM. The Kd in test [3] came to 104 nM.
In the case of `C=C1CC[C@@H](C)C(C)(C)[C@@H]1Cc1cc(OC)c(Br)cc1O` (relative stereo) [LL, trans-1-Methylidene-2-(2'-hydroxy-4'-bromo-5'-methoxyphenyl)methyl-3,3,4-trimethylcyclohexane], in test [1], the “Efficacy (% maximal response relative to RU-486), T47D cells” value worked out at 74% and the IC50 turned out to be 500 nM. Further, in test [2], the “Efficacy (% maximal response relative to RU-486), CV-1 cells” value was found to be 91% and the IC50 stood at 1600 nM. Besides, the Kd in test [3] is 269 nM.
The like results for `C=C1C=C(C)CC(C)(C)C1Cc1cc(OC)c(Br)cc1OC(C)=O` (stereo not shown) [H, 1-Methylidene-6-(2'-acetoxy-4'-bromo-5'-methoxyphenyl)methyl-3,5,5-trimethylcyclohex-2-ene] were, in that order, 60%, 775 nM, 40%, 700 nM and 60 nM.
As for `C=C1C[C@H](CCCO)CC(C)(C)[C@@H]1Cc1cc(OC)c(Br)cc1O` (relative stereo) [X, cis-1-Methylidene-2-(2'-hydroxy-4'-bromo-5'-methoxyphenyl)methyl-3,3-dimethyl-5-(3-hydroxypropyl)cyclohexane], in test [1], the “Efficacy (% maximal response relative to RU-486), T47D cells” value came out at 84% and the IC50 is 210 nM. In addition, in test [2], the “Efficacy (% maximal response relative to RU-486), CV-1 cells” value is listed as 99% and the IC50 was determined as 1100 nM. Also, the Kd in test [3] turned out to be 384 nM.
For `C=C1CC[C@@H](Br)C(C)(C)[C@@H]1Cc1cc(OC)c(I)cc1O` [V, (3R)-4'-Iodocyclocymopol monomethyl ether] the same measures were 85%, 325 nM, 95%, 1800 nM and 95 nM.
The like results for `C=C1CCCCC1Cc1cc(OC)c(Br)cc1O` (stereo not shown) [Compound S, 1-Methylidene-2-(2'-hydroxy-4'-bromo-5'-methoxyphenyl)methylcyclohexane] were, in that order, 85%, 400 nM, 90%, 1500 nM and 345 nM.
On to `C=C1CCCC(C)(C)C1Cc1cc(OC)c(Br)cc1O` (stereo in doubt) [G, (3S)-1-Debromocyclocymopol monomethyl ether], for which the “Efficacy (% maximal response relative to RU-486), T47D cells” value in test [1] amounted to 50%. In test [2], the “Efficacy (% maximal response relative to RU-486), CV-1 cells” value amounted to 45%.
For `C=C1CCCC(C)(C)C1Cc1cc(OC)c(Br)cc1O` (stereo not shown) [C, 1-Methylidene-2-(2'-hydroxy-4'-bromo-5'-methoxy-phenyl)methyl-3.3-dimethylcyclohexane], in test [1], the “Efficacy (% maximal response relative to RU-486), T47D cells” value amounted to 70%. In addition, the “Efficacy (% maximal response relative to RU-486), CV-1 cells” value in test [2] was found to be 55%.
For `C=C1C=C(C)CC(C)(C)C1Cc1ccc2nonc2c1` (stereo not shown) [FF, 1-Methylidene-6-(benzofurazan-5'-yl)methyl-3,5,5-trimethylcyclohex-2-ene], in test [1], the “Efficacy (% maximal response relative to RU-486), T47D cells” value is 71% and the IC50 stood at 775 nM. Besides, in test [2], the “Efficacy (% maximal response relative to RU-486), CV-1 cells” value is given as 72% and the IC50 was 1950 nM.
The like results for `C=C1C(C)=CCC(C)(C)C1Cc1cc(OC)c(Br)cc1OC(C)=O` (stereo in doubt) [Z, (3R)-5-Methyl-5,6-dehydro-1-debromocyclocymopol monomethyl ether, acetate] were, in that order, 81%, 210 nM, 83% and 660 nM.
With `C=C1C=C(C)CC(C)(C)C1Cc1cc(OC)c(Br)cc1O` (stereo not shown) [II, 1-Methylidene-6-(2'-hydroxy-4'-bromo-5'-methoxyphenyl)methyl-3,5,5-trimethylcyclohex-2-ene], the IC50 in test [2] turned out to be 3570 nM.
